Tests used:
Experiment in all cases: relative viability (nuclei count vs DMSO), 5 days (fraction); higher = more cells survive
[1] = compound: C/C(=N\NC(=S)N1CCC1)/C2=CC=CC=N2 + Nc1ncn([C@H]2C[C@H](O)[C@@H](CO)O2)c(=O)n1 [Decitabine] (partner 2 µM)
Outline: (§1)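 After 5 days of treatment, lung cancer cells in 1536-well plates were fixed and stained in a single step (final 0.05% Triton X-100, 1% formaldehyde, 1 ug/ml Hoechst) and their nuclei counted on 4× images. Treatment had been applied by pin tool the day after seeding as one drug alone or as a fixed anchor-drug dose with five library-drug doses (not always all listed) in √10 steps. Relative viability is the nuclei count of treated wells divided by that of vehicle wells, and values are medians of duplicate plates.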

[2] = compound: C/C(=N\NC(=S)N1CCC1)/C2=CC=CC=N2 + CC(C)C[C@H](NC(=O)[C@H](Cc1ccccc1)NC(=O)c1cnccn1)B(O)O [Bortezomib] (partner 0.002 µM)
Outline: as §1

[3] = compound: C/C(=N\NC(=S)N1CCC1)/C2=CC=CC=N2 + Cc1cc(Nc2cc(N3CCN(C)CC3)nc(Sc3ccc(NC(=O)C4CC4)cc3)n2)n[nH]1 [Tozasertib] (partner 0.1 µM)
Outline: as §1

[4] = compound: C/C(=N\NC(=S)N1CCC1)/C2=CC=CC=N2 + NC(=O)Nc1cc(-c2cccc(F)c2)sc1C(=O)N[C@H]1CCCNC1 [AZD7762] (partner 0.2 µM)
Outline: as §1

Cell Line | relative viability ([1]; first compound 0.05 µM) | relative viability ([1]; first compound 0.1581 µM) | relative viability ([1]; first compound 0.5 µM) | relative viability ([1]; first compound 1.581 µM) | relative viability ([1]; first compound 5 µM) | relative viability ([2]; first compound 0.05 µM) | relative viability ([2]; first compound 0.1581 µM) | relative viability ([2]; first compound 0.5 µM) | relative viability ([2]; first compound 1.581 µM) | relative viability ([2]; first compound 5 µM) | relative viability ([3]; first compound 0.05 µM) | relative viability ([3]; first compound 0.1581 µM) | relative viability ([3]; first compound 0.5 µM) | relative viability ([3]; first compound 1.581 µM) | relative viability ([3]; first compound 5 µM) | relative viability ([4]; first compound 0.05 µM) | relative viability ([4]; first compound 0.1581 µM) | relative viability ([4]; first compound 0.5 µM) | relative viability ([4]; first compound 1.581 µM) | relative viability ([4]; first compound 5 µM)
NCI-H661 | 0.274 | 0.26 | 0.218 | 0.236 | 0.232 | 0.213 | 0.2 | 0.185 | 0.217 | 0.185 | 0.239 | 0.261 | 0.23 | 0.235 | 0.248 |  |  |  |  | 
HCC-366 | 0.103 | 0.0378 | 0.0365 | 0.035 | 0.0275 | 0.0281 | 0.0189 | 0.0149 | 0.0223 | 0.02 | 0.0183 | 0.0481 | 0.0208 | 0.0215 | 0.0265 | 0.0319 | 0.0257 | 0.0217 | 0.0308 | 0.0241
NCI-H1944 | 0.225 | 0.413 | 0.158 | 0.116 | 0.143 |  |  |  |  |  | 0.248 | 0.181 | 0.127 | 0.0988 | 0.107 | 0.227 | 0.169 | 0.145 | 0.102 | 0.129
SW 1573 | 0.0582 | 0.119 | 0.111 | 0.0723 | 0.0647 | 0.143 | 0.115 | 0.151 | 0.117 | 0.087 | 0.0614 | 0.0887 | 0.0999 | 0.0752 | 0.0626 |  |  |  |  | 
COR-L 105 | 0.31 | 0.413 | 0.327 | 0.306 | 0.313 | 0.287 | 0.339 | 0.297 | 0.253 | 0.244 | 0.205 | 0.245 | 0.229 | 0.231 | 0.22 |  |  |  |  | 
EBC-1 |  |  |  |  |  | 0.177 | 0.226 | 0.169 | 0.162 | 0.174 |  |  |  |  |  |  |  |  |  | 
SK-LU-1 | 0.274 | 0.327 | 0.25 | 0.246 | 0.294 | 0.218 | 0.263 | 0.212 | 0.194 | 0.268 | 0.141 | 0.124 | 0.174 | 0.0952 | 0.136 |  |  |  |  | 
NCI-H1648 | 0.274 | 0.248 | 0.3 | 0.338 | 0.353 |  |  |  |  |  | 0.275 | 0.216 | 0.229 | 0.309 | 0.233 | 0.337 | 0.305 | 0.269 | 0.288 | 0.297
SW 900 | 0.21 | 0.231 | 0.16 | 0.201 | 0.17 |  |  |  |  |  | 0.155 | 0.107 | 0.0961 | 0.14 | 0.178 | 0.188 | 0.122 | 0.0988 | 0.188 | 0.171
NCI-H520 | 0.161 | 0.167 | 0.145 | 0.159 | 0.17 | 0.137 | 0.167 | 0.126 | 0.102 | 0.166 | 0.191 | 0.241 | 0.197 | 0.175 | 0.269 |  |  |  |  | 
UMC-11 | 0.446 | 0.2 | 0.261 | 0.273 | 0.2 | 0.175 | 0.173 | 0.141 | 0.141 | 0.101 | 0.196 | 0.177 | 0.196 | 0.192 | 0.185 |  |  |  |  | 
NCI-H1792 | 0.333 | 0.172 | 0.102 | 0.0665 | 0.0895 | 0.478 | 0.5 | 0.219 | 0.16 | 0.126 |  |  |  |  |  | 0.107 | 0.0965 | 0.0559 | 0.0274 | 0.0333
NCI-H1793 | 0.276 | 0.193 | 0.218 | 0.138 | 0.166 |  |  |  |  |  | 0.164 | 0.209 | 0.152 | 0.136 | 0.126 | 0.129 | 0.199 | 0.104 | 0.116 | 0.142
NCI-H1563 |  |  |  |  |  | 0.664 | 0.701 | 0.611 | 0.574 | 0.553 |  |  |  |  |  |  |  |  |  | 
NCI-H1395 | 0.331 | 0.36 | 0.357 | 0.354 | 0.377 |  |  |  |  |  | 0.389 | 0.347 | 0.359 | 0.34 | 0.328 | 0.287 | 0.326 | 0.402 | 0.35 | 0.406
NCI-H1299 |  |  |  |  |  | 0.111 | 0.155 | 0.206 | 0.209 | 0.138 |  |  |  |  |  |  |  |  |  | 
NCI-H2228 |  |  |  |  |  | 0.169 | 0.295 | 0.161 | 0.119 | 0.179 | 0.0977 | 0.114 | 0.126 |  | 0.116 |  |  |  |  | 
NCI-H2170 | 0.374 | 0.434 | 0.22 | 0.199 | 0.14 |  |  |  |  |  | 0.659 | 0.334 | 0.197 | 0.113 | 0.141 | 0.298 | 0.178 | 0.153 | 0.126 | 0.1
NCI-H522 | 0.402 | 0.456 | 0.333 | 0.345 | 0.385 |  |  |  |  |  |  | 0.292 | 0.296 |  | 0.407 | 0.307 | 0.279 | 0.24 | 0.292 | 0.397
A549 | 0.0459 | 0.0345 | 0.0375 | 0.0441 | 0.0197 |  |  |  |  |  |  |  |  |  |  |  |  |  |  | 
NCI-H358 | 0.114 | 0.12 | 0.0978 | 0.0977 | 0.0971 |  |  |  |  |  | 0.0651 | 0.0617 | 0.0695 | 0.0742 | 0.0612 | 0.174 | 0.217 | 0.16 | 0.15 | 0.18
CAL-12T |  |  |  |  |  | 0.21 | 0.252 | 0.256 | 0.215 | 0.24 | 0.128 | 0.12 | 0.131 | 0.107 | 0.113 | 0.284 | 0.226 | 0.281 | 0.206 | 0.159
COR-L23 | 0.156 | 0.149 | 0.161 | 0.106 | 0.0995 | 0.12 | 0.139 | 0.114 | 0.077 | 0.0874 | 0.101 | 0.0974 | 0.0768 | 0.0695 | 0.101 |  |  |  |  | 
IA-LM |  |  |  |  |  | 0.0596 | 0.0778 | 0.0529 | 0.0604 | 0.0675 |  |  |  |  |  |  |  |  |  | 
NCI-H1650 | 0.189 | 0.141 | 0.141 | 0.206 | 0.186 | 0.177 | 0.2 | 0.182 | 0.188 | 0.168 | 0.121 | 0.187 | 0.126 | 0.16 | 0.194 |  |  |  |  | 
Calu-6 |  |  |  |  |  | 0.165 | 0.182 | 0.188 | 0.171 | 0.175 |  |  |  |  |  |  |  |  |  | 

Source: the supplement of paper PMC10307832
